Data: patent publication US20230272399A1, “INHIBITORS OF LINE1 AND USES THEREOF” (T-ONE THERAPEUTICS S.R.L., priority 2020, published 2023)
*1 amine or outer side, *2 acyl side, *3 side chain or, on linkers, in order; H or OH if unused. Where a SMILES comes first, the peptide text is derived from it. Bridges are numbered along the chain shown (N, C = ends). Roman numbers before positions name the chains, in order. [ ]: non-standard residue; d: D form. Actinocin(9to1) = Cc1c2oc3c(C)ccc(C(=O)[*:1])c3nc-2c(C(=O)[*:2])c(N)c1=O; NMeV = CN[C@H](C(=O)O)C(C)C; Sar = CNCC(=O)O

How the values were obtained:
LINE1 RNAs [1] = assay: LINE1 RNA FISH in naïve CD4+ T-cells treated with 3TC retrotranscriptase inhibitor; type: cell-based, human; conditions: versus vehicle (DMSO)
Description: Briefly, antisense biotinylated riboprobes for LINE1, AluY and HERVK were in vitro transcribed using MAXIscript T7 transcription kit (Invitrogen) and Biotin RNA labeling mix (Roche). 50-100 ng of antisense biotinylated riboprobes per experiment were used. 3% paraformaldehyde (PFA) fixed T-cells were washed with 0.05% Triton-X-100 in PBS, permeabilized with 0.5% Triton-X-100 in PBS and maintained in 20% glycerol/PBS.
To quantify mean fluorescence intensity of RNA signal in 3D reconstructed nuclei, images were analyzed with NIS-Elements Software (by Nikon). In the “General Analysis” a mask on DAPI signals was generated to identify single nuclei, and then a “3D measurement” of RNA signals in every nucleus was performed. To measure the colocalization of RNA and histone mark signals was used ImageJ Software to control the Pearson Correlation through the command “Colocalization Threshold” for every nucleus.

LINE1 RNAs [2] = assay: Actinomycin D treatment of quiescent naïve CD4+ T-cells, LINE1 expression by qRT-PCR; type: cell-based, human; conditions: Actinomycin D 5 μg/mL, 16 h
Description: Quiescent naïve CD4^+ T-cells were treated for 16 h with Actinomycin D 5 μg/mL (Merck; cat. num. A9415) as reported in^68. TCR signaling pathway inhibition was performed using the following immunosuppressive drugs: Rapamycin (100 nM; Merck; cat. num. R8781) for mTORC1, Ciclosporin A (0,5 μg/mL; Merck; cat. num. C3662) for Calcineurin pathway, Dexamethasone (1 μM; Merck; cat. num. D4902) for NF-κB pathway. Quiescent naïve CD4^+ T-cells were pretreated for 2 hours with the overmentioned drugs, then stimulated with Dynabeads Human T-activator anti-CD3/anti-CD28 beads in Th1 medium, in the presence of the different inhibitors; T-cells were collected 2, 4, 8 h post activation. Otherwise, naïve CD4^+ T-cells activated and cultured in Th1 medium for 72 h were treated for 48 h with the drugs. Treated cells were controlled for their vitality and treatment efficacy was assessed.

mTORC1 = mTORC1 (Homo sapiens, UniProt P42345+P62942); assay: LINE1 expression in memory CD4+ T-cells from blood of patients treated with mTORC1 inhibitors; conditions: memory CD4+ T-cells from blood of kidney transplanted patients treated with Everolimus, versus healthy individuals

SMILES: Nc1ccn([C@@H]2CS[C@H](CO)O2)c(=O)n1 [3TC]
- staining of LINE1 RNAs (RNA-FISH) (LINE1 RNAs [1]): completely unchanged

SMILES: Cc1c2oc3c(C)ccc(C(=O)N[C@@H]4C(=O)N[C@H](C(C)C)C(=O)N5CCC[C@H]5C(=O)N(C)CC(=O)N(C)[C@@H](C(C)C)C(=O)O[C@@H]4C)c3nc-2c(C(=O)N[C@@H]2C(=O)N[C@H](C(C)C)C(=O)N3CCC[C@H]3C(=O)N(C)CC(=O)N(C)[C@@H](C(C)C)C(=O)O[C@@H]2C)c(N)c1=O [actinomycin D, Actinomycin D] (I: T[dV]P[Sar][NMeV] / II: T[dV]P[Sar][NMeV]; ester I:1-I:C, II:1-II:C; linker I:N-II:N via Actinocin(9to1))
- LINE1 RNAs levels (LINE1 RNAs [2]): moderately affect

SMILES: CO[C@H]1C[C@@H]2CC[C@@H](C)[C@@](O)(O2)C(=O)C(=O)N2CCCC[C@H]2C(=O)O[C@H]([C@H](C)C[C@@H]2CC[C@@H](OCCO)[C@H](OC)C2)CC(=O)[C@H](C)/C=C(\C)[C@@H](O)[C@@H](OC)C(=O)[C@H](C)C[C@H](C)/C=C/C=C/C=C/1C [Everolimus]
- LINE1 RNAs expression (mTORC1): re-express LINE1 RNAs
